Test results from PMC8536644, “Enigmatic mechanism of the N-vinylpyrrolidone hepatocarcinogenicity in the rat” (Archives of Toxicology, 2021).
Several values for one entry are separate records, joined by “and”; a condition that tells them apart may be missing. Identical values can stand only once.

Assays:
rat liver [1] = assay: Non-protein-bound sulfhydryl groups (NPSH) in liver homogenate supernatant; assay type: in vivo; settings: for NPSH, individual animal / NPSH, group (mean ± SD): rat liver; for NPSH, group (mean ± SD): n = 6
Method: Determination of NPSH was performed according to the principle described by Ellmann (1958, 1959) in the liver homogenate supernatant fraction of the NVP-exposed male Wistar rats. […] The supernatant fraction was stored in aliqots at − 80 °C. Prior to assay, the samples were diluted fourfold and to 100 µL of the diluted sample 200 µL Tris/EDTA (1 M/5 mM, pH 8.9) buffer was added. Determinations were performed in triplicates. […] Measurements were performed 5 min thereafter at λ = 412 nm.

rat liver [2] = assay: Glutathione recycling assay (tGSH, GSSG) in liver; assay type: in vivo; settings: for GSH (GSH recycling assay), individual animal / GSSG, individual animal / tGSH, individual animal / GSH (GSH recycling assay), group (mean ± SD) / GSSG, group (mean ± SD) / tGSH, group (mean ± SD): rat liver; for GSH (GSH recycling assay), group (mean ± SD) / GSSG, group (mean ± SD) / tGSH, group (mean ± SD): n = 6;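 as to GSSG, group (mean ± SD): Nanomoles per gram liver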;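 as to GSSG, individual animal: Nanomoles per gram liver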;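 as to Mean GSSG concentration: Nanomoles per gram liver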
Method: Glutathione recycling assay was adapted from the method described by Gallagher ([1994]) and performed using the 14 000 g supernatant fraction derived from the 5-SSA-treated liver homogenate of the NVP-exposed male Wistar rats as described above under “Non-protein-bound sulfhydryl groups”. The obtained samples were diluted fivefold with the 5% 5-SSA solution.
For determination of total glutathione (tGSH, i.e. GSH + GSSG) a GSH control (640 µM in 5% 5-SSA, diluted by a factor of 4 for application in the assay) and a tGSH control (200 µM in 5% 5-SSA, containing 10% GSSG) were treated the same way as the samples. To 5 µL of sample, controls as well as GSH standards (dissolved in 5% 5-SSA solution) 190 µL tGSH master mix, consisting of phosphate/EDTA buffer (125 mM KH2PO4/7 mM EDTA, pH 7.5), 0.4 mM NADPH and 0.5 U/L glutathione reductase suspension, were added. Determinations were performed in triplicates. The reaction was started by adding 5 µL of 24 mM DTNB in methanol. The absorption at λ = 412 nm was measured every 60 s for 5 min.
For determination of GSSG a control (20 μM GSSG, 160 μM GSH) was treated the same way as the samples. 125 µL sample, control, GSSG standards and blank, respectively, were combined with 5 µL 2-vinylpyridine (Sigma Aldrich, Steinheim, Germany). 20 µL of […] triethylamine was pipetted to the upper rim of the vessel such that after mixing the pH value was between 7 and 7.5 and reaction was allowed to proceed in the thermomixer at 600 rpm for 1 h at 26 °C in order to derivatize the GSH in the sample. The determination of GSSG was then performed in analogy to the determination of tGSH described above. The absorption at λ = 412 nm was measured every 60 s for 10 min.

CYP2E1 = assay: Lauric acid hydroxylase assay, 11-hydroxylation; assay type: in vivo, rat
Method: ^14C-labelled lauric acid (55 mCi/mmol) dissolved in ethanol (0.1 mCi/mL; total volume 2.5 mL) was purchased from American Radiolabeled Chemicals. 10 µL of this solution were diluted with methanol to 2 mL. The purity was checked by radio-HPLC. For the enzyme activity determinations 1.21 mL of this solution were treated in the thermomixer at 40 °C and 300 rpm until the ethanol was completely evaporated. The residue was taken up in 550 µL DMSO and checked on the incubation days by radio-HPLC and by liquid scintillation counting (LSC). To this end the just-mentioned solution in DMSO (nominally 8.14 MBq/mL) was 100-fold diluted with methanol, 50 µL of the resultant solution used for the HPLC analysis, 100 µL for the LSC analysis (488,400 dpm/100 µL).
For the determination of the lauric acid hydroxylase activity the liver microsomal fractions (prepared as described in the preceding chapter “Aryl hydrocarbon receptor”) derived from the NVP-treated (and untreated control) male rats were adjusted with TrisHCl pH 7.5–20 mg protein/mL. Obtained samples were measured in duplicates. Controls were heat-denatured samples (15 min at 99 °C in the thermomixer at 450 rpm), zero-time samples (reaction stopped immediately after adding substrate) and buffer controls (TrisHCl pH 7.5, no microsomal protein). 155 µL master mix (100 mM TrisHCl pH 7.5, 10 mM MgCl2, 2 mM 5’AMP-Na2, 5 mM G-6-P, 10 U G-6-P-DH) and 30 µL sample were preincubated for 3 min at 37 °C. Subsequently 10 µL of a 2-mM NADPH solution and 5 µL ^14C-lauric acid (8.14 MBq/mL) were added (lauric acid final concentration in the incubation 100 µM). The reaction was run for 20 min at 37 °C in the thermomixer (450 rpm) and stopped by the addition of 200 µL ice-cold acetone. Proteins were sedimented by centrifugation (6000 g, 10 min, 4 °C) and the supernatant used for the analysis by HPLC (system: Agilent 1260 infinity, column: EC250/4 Nucleosil, 120–5 C18, radio detector: Berthold FlowStar LB 513) under the following conditions: Injection volume 50 µL; eluent A: Methanol/acetic acid/water (600/5/400 mL), eluent B: Methanol; gradient: 0–10 min 100% eluent A, 10–20 min 0–100% eluent B, 20–30 min 100% eluent B, 30–40 min 100% eluent A; flow rate: 0.8 mL/min. In order to ascertain the assignment of the peaks to 11-hydroxylauric acid versus 12-hydroxylauric acid the retention times and mass spectra (HPLC-QTOF/MS) of a 12-hydroxylauric acid standard were compared with the lauric acid incubates (parameters of the HPLC-QTOF/MS system: (U)HPLC: Agilent 1200 und 1290; MS instrument: MS324/Agilent/S/N US10318001; radio detector: Raytest/Mirastar Masshunter Data Acquisition B.06.01; ionisation mode: ESI, negative mode).

[3] = test system: L5178Y mouse lymphoma cells; set-up: method as in MAK [1994]; settings: ref MAK [1994]; cited from earlier work
Klebsiella pneumoniae = settings: ref MAK [1994]; cited from earlier work
[4] = NVP-exposed male rats, 5-20 ppm
[5] = 5 ppm NVP inhalation, animals 7-12
[6] = 10 ppm NVP inhalation, animals 13-18
[7] = 20 ppm NVP inhalation, animals 19-24
[8] = lauric acid 11-hydroxylation, liver microsomes, 20 ppm NVP, individual animals 19-24

C=CN1CCCC1=O [NVP, N-vinylpyrrolidone]
GSH concentration (NPSH assay), range (rat liver [1]; [4]): 3.72–5.23 µmol/g liver
NPSH, individual animal (rat liver [1]; [5]): 5,13 µmol/g liver and 4,59 µmol/g liver and 4,10 µmol/g liver and 4,86 µmol/g liver and 3,99 µmol/g liver
NPSH, group (mean ± SD) (rat liver [1]; 5 ppm NVP inhalation): 4.42 ± 0.52 µmol/g liver
NPSH, individual animal (rat liver [1]; [6]): 4.11 µmol/g liver and 4.72 µmol/g liver and 4.83 µmol/g liver and 4.57 µmol/g liver and 3.76 µmol/g liver
NPSH, group (mean ± SD) (rat liver [1]; 10 ppm NVP inhalation): 4.23 ± 0.58 µmol/g liver
NPSH, individual animal (rat liver [1]; [7]): 4.47 µmol/g liver and 5.23 µmol/g liver and 3.72 µmol/g liver and 3.88 µmol/g liver and 4.67 µmol/g liver and 4.64 µmol/g liver
NPSH, group (mean ± SD) (rat liver [1]; 20 ppm NVP inhalation): 4.44 ± 0.55 µmol/g liver
GSH/GSSG ratio (rat liver [2]; 5 ppm): 42.2 ± 18.4
Mean GSSG concentration (rat liver [2]; 5 ppm): 116 ± 32 nmol/g liver
Proportion of reduced glutathione GSH within total glutathione tGSH (rat liver [2]; 5 ppm): 95.0% ± 1.4%
GSH/GSSG ratio (rat liver [2]; 10 ppm): 31.2 ± 4.6
Mean GSSG concentration (rat liver [2]; 10 ppm): 135 ± 12 nmol/g liver
Proportion of reduced glutathione GSH within total glutathione tGSH (rat liver [2]; 10 ppm): 93.9% ± 0.8%
GSH/GSSG ratio (rat liver [2]; 20 ppm): 30.0 ± 4.6
Mean GSSG concentration (rat liver [2]; 20 ppm): 136 ± 22 nmol/g liver
Proportion of reduced glutathione GSH within total glutathione tGSH (rat liver [2]; 20 ppm): 93.6% ± 0.9%
GSH concentration (GSH recycling assay), range (rat liver [2]; [4]): 3.06–5.48 µmol/g liver
GSH (GSH recycling assay), individual animal (rat liver [2]; [5]): 3.84 µmol/g liver and 5.48 µmol/g liver and 4.63 µmol/g liver and 3.93 µmol/g liver and 5.04 µmol/g liver and 4.00 µmol/g liver
GSSG, individual animal (rat liver [2]; [5]): 133 nmol/g liver and 71 nmol/g liver and 144 nmol/g liver and 114 nmol/g liver and 149 nmol/g liver and 87 nmol/g liver
tGSH, individual animal (rat liver [2]; [5]): 4.10 µmol/g liver and 5.63 µmol/g liver and 4.92 µmol/g liver and 4.16 µmol/g liver and 5.33 µmol/g liver and 4.17 µmol/g liver
GSH (GSH recycling assay), group (mean ± SD) (rat liver [2]; 5 ppm NVP inhalation): 4.49 ± 0.68 µmol/g liver
GSSG, group (mean ± SD) (rat liver [2]; 5 ppm NVP inhalation): 116 ± 32 nmol/g liver
tGSH, group (mean ± SD) (rat liver [2]; 5 ppm NVP inhalation): 4.72 ± 0.67 µmol/g liver
GSH (GSH recycling assay), individual animal (rat liver [2]; [6]): 3.44 µmol/g liver and 3.95 µmol/g liver and 4.70 µmol/g liver and 4.98 µmol/g liver and 4.41 µmol/g liver and 3.65 µmol/g liver
GSSG, individual animal (rat liver [2]; [6]): 132 nmol/g liver and 120 nmol/g liver and 151 nmol/g liver and 147 nmol/g liver and 126 nmol/g liver
tGSH, individual animal (rat liver [2]; [6]): 3.70 µmol/g liver and 4.21 µmol/g liver and 4.94 µmol/g liver and 5.28 µmol/g liver and 4.70 µmol/g liver and 3.91 µmol/g liver
GSH (GSH recycling assay), group (mean ± SD) (rat liver [2]; 10 ppm NVP inhalation): 4.19 ± 0.61 µmol/g liver
GSSG, group (mean ± SD) (rat liver [2]; 10 ppm NVP inhalation): 135 ± 12 nmol/g liver
tGSH, group (mean ± SD) (rat liver [2]; 10 ppm NVP inhalation): 4.46 ± 0.62 µmol/g liver
GSH (GSH recycling assay), individual animal (rat liver [2]; [7]): 4.45 µmol/g liver and 4.57 µmol/g liver and 3.06 µmol/g liver and 3.48 µmol/g liver and 4.31 µmol/g liver and 4.35 µmol/g liver
GSSG, individual animal (rat liver [2]; [7]): 151 nmol/g liver and 130 nmol/g liver and 106 nmol/g liver and 142 nmol/g liver and 121 nmol/g liver and 167 nmol/g liver
tGSH, individual animal (rat liver [2]; [7]): 4.75 µmol/g liver and 4.83 µmol/g liver and 3.27 µmol/g liver and 3.77 µmol/g liver and 4.55 µmol/g liver and 4.68 µmol/g liver
GSH (GSH recycling assay), group (mean ± SD) (rat liver [2]; 20 ppm NVP inhalation): 4.04 ± 0.62 µmol/g liver
GSSG, group (mean ± SD) (rat liver [2]; 20 ppm NVP inhalation): 136 ± 22 nmol/g liver
Lauric acid 11-hydroxylation activity (CYP2E1; 20 ppm, male rat liver microsomes): 5149 ± 2010 peak area/min/mg protein
Increase of lauric acid 11-hydroxylation vs vehicle control (CYP2E1; 20 ppm, statistically not significant): 1.1 fold
ω-1-hydroxylase (CYP2E1-activity), enzyme activity individual (CYP2E1; [8]): 7458 peak surface/min/mg protein and 7295 peak surface/min/mg protein and 3522 peak surface/min/mg protein and 5008 peak surface/min/mg protein and 5216 peak surface/min/mg protein and 2393 peak surface/min/mg protein
ω-1-hydroxylase (CYP2E1-activity), peak surface (CYP2E1; [8]): 9940 and 10,040 and 5283 and 7513 and 7824 and 3996
ω-1-hydroxylase (CYP2E1-activity), enzyme activity group (mean ± SD) (CYP2E1; lauric acid 11-hydroxylation, liver microsomes, 20 ppm NVP, vehicle 4512 ± 1050): 5149 ± 2010 peak surface/min/mg protein
Mammalian cell mutation tests (HGPRT and TK locus) result [3]: negative
Klebsiella pneumoniae fluctuation (point mutation) test result (Klebsiella pneumoniae): negative
